Assay: pH value of the dried carboxylic acid salt in water
Assay type: physicochemical
Conditions: dried salt cake dissolved in water

SMILES | pH value in water
Cc1cc(Cl)ccc1OCC(=O)[O-].[K+] [MCPA-potassium] | 9
O=C(O)c1nc(Cl)ccc1Cl.OCCNCCO [clopyralid-bis(2-hydroxyethyl)ammonium] | 8
COc1c(Cl)ccc(Cl)c1C(=O)[O-].[Na+] [dicamba-sodium] | 7
O=C([O-])c1c(Cl)ccc2cc(Cl)cnc12.[Na+] [quinclorac-sodium] | 10

Reference: patent US10011552B2, “Process for preparation of herbicidal carboxylic acid salts” (ROTAM AGROCHEM INTERNATIONAL COMPANY LIMITED, priority 2013, dated 2018)
